Test results taken from ChEMBL document CHEMBL5579851, “Synthesis and antifungal evaluation of novel triazole derivatives bearing a pyrazole-methoxyl moiety” (Eur J Med Chem, 2024).
≈ marks a conversion by molar mass, not a printed value. Calls of active or inactive are those of the source. No cut-off for these calls is given here.

Columns and labels:
Candida albicans [1] = experiment: Antifungal activity against Candida albicans SC5314 assessed as inhibition of fungal growth incubated for 48 hrs by CLSI based broth microdilution assay; type: functional
Candida albicans [2] = experiment: Antifungal activity against Candida albicans 10231 assessed as inhibition of fungal growth incubated for 48 hrs by CLSI based broth microdilution assay; type: functional
Cryptococcus neoformans = experiment: Antifungal activity against Cryptococcus neoformans 32609 assessed as inhibition of fungal growth incubated for 72 hrs by CLSI based broth microdilution assay; type: functional
Nakaseomyces glabratus = experiment: Antifungal activity against Candida glabrata 537 assessed as inhibition of fungal growth incubated for 48 hrs by CLSI based broth microdilution assay; type: functional
Candida parapsilosis = experiment: Antifungal activity against Candida parapsilosis 22019 assessed as inhibition of fungal growth incubated for 48 hrs by CLSI based broth microdilution assay; type: functional; settings: Lodderomyces parapsilosis
Pichia kudriavzevii = experiment: Antifungal activity against Candida krusei 4996 assessed as inhibition of fungal growth incubated for 48 hrs by CLSI based broth microdilution assay; type: functional
Candida tropicalis = experiment: Antifungal activity against Candida tropicalis 8915 assessed as inhibition of fungal growth incubated for 48 hrs by CLSI based broth microdilution assay; type: functional
Candida albicans [3] = experiment: Antifungal activity against fluconazole-resistant Candida albicans 901 assessed as inhibition of fungal growth incubated for 48 hrs by CLSI based broth microdilution assay; type: functional
Candida albicans [4] = experiment: Antifungal activity against fluconazole-resistant Candida albicans 904 assessed as inhibition of fungal growth incubated for 48 hrs by CLSI based broth microdilution assay; type: functional
[Candida] auris [5] = Antifungal activity against fluconazole-resistant Candida auris 891 assessed as inhibition of fungal growth incubated for 48 hrs by CLSI based broth microdilution assay; type: functional; settings: Candidozyma auris
[Candida] auris [6] = Antifungal activity against fluconazole-resistant Candida auris 918 assessed as inhibition of fungal growth incubated for 48 hrs by CLSI based broth microdilution assay; type: functional; settings: Candidozyma auris
[Candida] auris [7] = Antifungal activity against fluconazole-resistant Candida auris 919 assessed as inhibition of fungal growth incubated for 48 hrs by CLSI based broth microdilution assay; type: functional; settings: Candidozyma auris
Saccharomyces cerevisiae [8] = experiment: Antifungal activity against recombinant Saccharomyces cerevisiae Y525 overexpressing CaMdr1 assessed as inhibition of fungal growth incubated for 48 hrs by CLSI based broth microdilution assay; type: functional
Saccharomyces cerevisiae [9] = experiment: Antifungal activity against recombinant Saccharomyces cerevisiae Y570 overexpressing CaCdr1 assessed as inhibition of fungal growth incubated for 48 hrs by CLSI based broth microdilution assay; type: functional
Saccharomyces cerevisiae [10] = experiment: Antifungal activity against recombinant Saccharomyces cerevisiae Y2765 overexpressing CauMdr1 assessed as inhibition of fungal growth incubated for 48 hrs by CLSI based broth microdilution assay; type: functional
Saccharomyces cerevisiae [11] = experiment: Antifungal activity against recombinant Saccharomyces cerevisiae Y2766 overexpressing CauCdr1 assessed as inhibition of fungal growth incubated for 48 hrs by CLSI based broth microdilution assay; type: functional
Saccharomyces cerevisiae [12] = experiment: Antifungal activity against recombinant Saccharomyces cerevisiae Y2411 overexpressing ScErg11 assessed as inhibition of fungal growth incubated for 48 hrs by CLSI based broth microdilution assay; type: functional
Saccharomyces cerevisiae [13] = experiment: Antifungal activity against recombinant Saccharomyces cerevisiae Y2300 overexpressing ScErg11 assessed as inhibition of fungal growth incubated for 48 hrs by CLSI based broth microdilution assay; type: functional
Saccharomyces cerevisiae [14] = experiment: Antifungal activity against recombinant Saccharomyces cerevisiae Y2462 overexpressing ScErg11/ScNcp1 assessed as inhibition of fungal growth incubated for 48 hrs by CLSI based broth microdilution assay; type: functional
Saccharomyces cerevisiae [15] = experiment: Antifungal activity against recombinant Saccharomyces cerevisiae Y2459 overexpressing CaErg11/CaCpr assessed as inhibition of fungal growth incubated for 48 hrs by CLSI based broth microdilution assay; type: functional
Saccharomyces cerevisiae [16] = experiment: Antifungal activity against recombinant Saccharomyces cerevisiae Y2374 overexpressing CgErg11 assessed as inhibition of fungal growth incubated for 48 hrs by CLSI based broth microdilution assay; type: functional
Saccharomyces cerevisiae [17] = experiment: Antifungal activity against recombinant Saccharomyces cerevisiae Y2721 overexpressing CpErg11/CpCpr assessed as inhibition of fungal growth incubated for 48 hrs by CLSI based broth microdilution assay; type: functional
Saccharomyces cerevisiae [18] = experiment: Antifungal activity against recombinant Saccharomyces cerevisiae Y2767 overexpressing CauErg11 assessed as inhibition of fungal growth incubated for 48 hrs by CLSI based broth microdilution assay; type: functional
Saccharomyces cerevisiae [19] = experiment: Antifungal activity against recombinant Saccharomyces cerevisiae Y2711 overexpressing CnErg11 assessed as inhibition of fungal growth incubated for 48 hrs by CLSI based broth microdilution assay; type: functional
Saccharomyces cerevisiae [20] = experiment: Antifungal activity against recombinant Saccharomyces cerevisiae Y2301 overexpressing ScErg11 Y140F mutant assessed as inhibition of fungal growth incubated for 48 hrs by CLSI based broth microdilution assay; type: functional
Saccharomyces cerevisiae [21] = experiment: Antifungal activity against recombinant Saccharomyces cerevisiae Y2513 overexpressing ScErg11 Y140H mutant assessed as inhibition of fungal growth incubated for 48 hrs by CLSI based broth microdilution assay; type: functional
Saccharomyces cerevisiae [22] = experiment: Antifungal activity against recombinant Saccharomyces cerevisiae Y2716 overexpressing CpErg11 Y132F mutant/ CpCpr assessed as inhibition of fungal growth incubated for 48 hrs by CLSI based broth microdilution assay; type: functional
Saccharomyces cerevisiae [23] = experiment: Antifungal activity against recombinant Saccharomyces cerevisiae Y2768 overexpressing CauErg11 T132F mutant assessed as inhibition of fungal growth incubated for 48 hrs by CLSI based broth microdilution assay; type: functional
Saccharomyces cerevisiae [24] = experiment: Antifungal activity against recombinant Saccharomyces cerevisiae Y2769 overexpressing CauErg11 K143R mutant assessed as inhibition of fungal growth incubated for 48 hrs by CLSI based broth microdilution assay; type: functional
Candida albicans [25] = experiment: Antifungal activity against Candida albicans SC5314 assessed as inhibition of fungal growth at 0.125 ug/ml after 12 hrs by TECAN plate reader analysis; type: functional, organism-based; settings: dose 0.125 µg/ml
Candida albicans [26] = experiment: Antifungal activity against Candida albicans SC5314 assessed as inhibition of fungal growth at 2 ug/ml after 36 hrs by TECAN plate reader analysis; type: functional, organism-based; settings: dose 2.0 µg/ml
Candida albicans [27] = experiment: Antifungal activity against Candida albicans SC5314 assessed as inhibition of hyphae formation at 0.0625 to 0.5 ug/ml after 3 hrs by inverted microscopic analysis; type: functional, organism-based; settings: dose 0.0625-0.5 µg/ml
Candida albicans [28] = experiment: Antifungal activity against Candida albicans SC5314 assessed as inhibition of hyphae length at 0.0625 to 0.5 ug/ml after 3 hrs by inverted microscopic analysis; type: functional, organism-based; settings: dose 0.0625-0.5 µg/ml
Candida albicans [29] = experiment: Antifungal activity against Candida albicans SC5314 assessed as inhibition of hyphae length at 1 ug/ml after 3 hrs by inverted microscopic analysis; type: functional, organism-based; settings: dose 1.0 µg/ml
Candida albicans [30] = experiment: Antifungal activity against Candida albicans SC5314 assessed as inhibition of hyphae formation by measuring pseudohyphae at 1 ug/ml after 3 hrs by inverted microscopic analysis; type: functional, organism-based; settings: dose 1.0 µg/ml
Candida albicans [31] = experiment: Antibiofilm activity against Candida albicans SC5314 assessed as inhibition of biofilm formation at 64 ug/mL incubated for 24 hrs by XTT assay relative to control; type: functional
Candida albicans [32] = experiment: Antibiofilm activity against Candida albicans SC5314 assessed as increase in matured biofilm distruption at 64 ug/ml incubated for 24 hrs by XTT assay relative to control; type: functional; settings: dose 64 µg/ml
[33] = target: T1, Lanosterol 14-alpha demethylase (Candida albicans (strain SC5314 / ATCC MYA-2876) (Yeast), UniProt P10613); experiment: Inhibition of CYP51 in Candida albicans SC5314 assessed as ergosterol level at 0.5 ug/ml after 8 hrs by GC-MS analysis (reference value: 86.2 %); parameters: scale not given: the % may be the effect or the level left; settings: at 0.5 µg/mL
[34] = target: T1, Lanosterol 14-alpha demethylase; experiment: Inhibition of CYP51 in Candida albicans SC5314 assessed as lanosterol level at 0.5 ug/ml after 8 hrs by GC-MS analysis (reference value: 5.9 %); parameters: scale not given: the % may be the effect or the level left; settings: at 0.5 µg/mL
[35] = target: T1, Lanosterol 14-alpha demethylase; experiment: Inhibition of CYP51 in Candida albicans SC5314 assessed as eburicol level at 0.5 ug/ml after 8 hrs by GC-MS analysis relative to control; parameters: scale not given: the % may be the effect or the level left; settings: at 0.5 µg/mL
[36] = target: T1, Lanosterol 14-alpha demethylase; experiment: Inhibition of CYP51 in Candida albicans SC5314 assessed as obtusifoliol level at 0.5 ug/ml after 8 hrs by GC-MS analysis relative to control; parameters: scale not given: the % may be the effect or the level left; settings: at 0.5 µg/mL
[37] = target: T1, Lanosterol 14-alpha demethylase; experiment: Inhibition of CYP51 in Candida albicans SC5314 assessed as 14alpha-methylfecosterol level at 0.5 ug/ml after 8 hrs by GC-MS analysis relative to control; parameters: scale not given: the % may be the effect or the level left; settings: at 0.5 µg/mL
Cell membrane [38] = experiment: Induction of membrane permeabilization in Candida albicans SC5314 assessed as increase in fluorescence at 0.5 ug/ml incubated for 8 hrs by propidium iodide staining based fluorescence microscopic analysis; settings: dose 0.5 µg/ml
Cell membrane [39] = experiment: Induction of membrane permeabilization in Candida albicans SC5314 assessed as increase in fluorescence at 4 ug/ml incubated for 8 hrs by propidium iodide staining based fluorescence microscopic analysis; settings: dose 4.0 µg/ml
[40] = Cytotoxicity against HUVEC cells assessed as cell viability at 128 ug/ml incubated for 24 hrs by CCK-8 assay relative to control; type: toxicity, cell-based; settings: human, at 128 µg/mL, read-out: Activity

T1 sequence (P10613 whole entry): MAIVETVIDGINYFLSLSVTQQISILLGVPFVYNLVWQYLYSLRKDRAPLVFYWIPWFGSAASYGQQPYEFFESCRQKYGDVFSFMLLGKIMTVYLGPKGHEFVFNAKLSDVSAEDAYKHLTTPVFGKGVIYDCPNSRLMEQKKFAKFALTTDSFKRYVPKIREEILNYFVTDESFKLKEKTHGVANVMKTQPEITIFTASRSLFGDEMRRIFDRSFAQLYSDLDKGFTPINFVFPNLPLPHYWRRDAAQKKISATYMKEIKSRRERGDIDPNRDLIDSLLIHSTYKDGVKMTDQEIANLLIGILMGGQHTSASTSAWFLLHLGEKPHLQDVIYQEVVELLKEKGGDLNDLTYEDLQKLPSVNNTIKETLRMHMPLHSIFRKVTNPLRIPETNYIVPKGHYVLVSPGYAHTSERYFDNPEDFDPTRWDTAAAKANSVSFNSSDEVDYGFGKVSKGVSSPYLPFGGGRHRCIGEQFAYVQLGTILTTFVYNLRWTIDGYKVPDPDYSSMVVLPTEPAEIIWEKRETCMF

**Q.** Which results are given for `OC(Cn1cncn1)(Cn1cncn1)c1ccc(F)cc1F` [FLUCONAZOLE]?
**A.** MIC (Candida albicans [1]): 0.5 µg/mL (≈ 1.63 µM); MIC (Candida albicans [2]): > 64 µg/mL; MIC (Cryptococcus neoformans): 2 µg/mL (≈ 6.53 µM); MIC (Nakaseomyces glabratus): 1 µg/mL (≈ 3.27 µM); MIC (Candida parapsilosis): 4 µg/mL (≈ 13.1 µM); MIC (Pichia kudriavzevii): 64 µg/mL (≈ 209 µM); MIC (Candida tropicalis): > 64 µg/mL; MIC (Candida albicans [3]): > 256 µg/mL; MIC (Candida albicans [4]): > 256 µg/mL; MIC ([Candida] auris [5]): > 256 µg/mL; MIC ([Candida] auris [6]): > 256 µg/mL; MIC ([Candida] auris [7]): > 256 µg/mL; MIC (Saccharomyces cerevisiae [8]): > 64 µg/mL; MIC (Saccharomyces cerevisiae [9]): > 64 µg/mL; MIC (Saccharomyces cerevisiae [10]): 64 µg/mL; MIC (Saccharomyces cerevisiae [11]): > 64 µg/mL; MIC (Saccharomyces cerevisiae [12]): 1 µg/mL; MIC (Saccharomyces cerevisiae [13]): 4 µg/mL; MIC (Saccharomyces cerevisiae [14]): 8 µg/mL; MIC (Saccharomyces cerevisiae [15]): 2 µg/mL; MIC (Saccharomyces cerevisiae [16]): 4 µg/mL; MIC (Saccharomyces cerevisiae [17]): 4 µg/mL; MIC (Saccharomyces cerevisiae [18]): 4 µg/mL; MIC (Saccharomyces cerevisiae [19]): 0.5 µg/mL; MIC (Saccharomyces cerevisiae [20]): 4 µg/mL; MIC (Saccharomyces cerevisiae [21]): 4 µg/mL; MIC (Saccharomyces cerevisiae [22]): 8 µg/mL; MIC (Saccharomyces cerevisiae [23]): 64 µg/mL; MIC (Saccharomyces cerevisiae [24]): 32 µg/mL; inhibition (Candida albicans [25]): inactive; inhibition (Candida albicans [26]): inactive; inhibition (Candida albicans [27]): inactive; inhibition (Candida albicans [28]): inactive; inhibition (Candida albicans [29]): Active; inhibition (Candida albicans [30]): Active; inhibition at 64 µg/mL (Candida albicans [31]): ~28%; Activity (Candida albicans [32]): 38%; Activity [33]: 39.8%; Activity [34]: 38%; Activity [35]: 2%; Activity [36]: 2%; Activity [37]: 20%; Activity (Cell membrane [38]): inactive; Activity (Cell membrane [39]): Active; viability at 24 h, 128 ug/ml [40]: 83%
